The target of data set [1] is T1, NEIL1 (Homo sapiens, UniProt Q96FI4).
T1 construct: made in house
Put plainly: qHTS fluorogenic glycosylase/AP lyase assay, 1536-well, Sp/Gh substrate. The data set is classed as biochemical. To be noted: 5 concentrations. How it is done:
The fluorogenic assay was miniaturized to 4 µL in 1536-well black solid plates by optimization of the enzyme and Sp/Gh substrate concentrations. Briefly, 3 µL of 25 nM NEIL1 were dispensed into each well of a 1536-well plate (except buffer in columns 3 and 4 as a negative control). Compounds (DMSO solutions) and control (DMSO only) (23 nL) were transferred to the plate via Kalypsys pintool. The plate was incubated for 15 min at room temperature, and then 1 µL of the Sp/Gh-containing DNA substrate (75 nM final concentration) was added to start the reaction. The plate was immediately transferred into the ViewLux reader for the kinetic fluorescence read. Initial rate data were normalized against uninhibited and no-enzyme controls and the resulting percent activities as a function of compound concentration were fitted using the Hill equation.
Having established the general principle for a glycosylase screening assay, further assay development was undertaken to enable HTS in which the reaction volumes were reduced by 5-fold to a total of 4 µL. Initially, the library of pharmacologically active compounds (LOPAC^1280) was screened for inhibitors of NEIL1 as a determination of the feasibility of this high-throughput method. […] All compounds were screened at 5 different concentrations that allowed for the initial estimation of inhibitory potency (IC50) values, as well as an evaluation of the shape of the response curves. In addition to the anticipated inhibitors (known DNA intercalators, such as ellipticine (IC50 = 2 µM)) and other small molecules that have been previously established to be promiscuous inhibitors (such as aurintricarboxylic acid (IC50<1 µM)), one interesting hit from this screen was CGP-74514A (NCGC ID is NCGC00015229) (Figure 5A). CGP-74514A is a known small molecule inhibitor of Cdk1 in which the structure of this molecule is based on a purine ring backbone.
A general note: Quantitative high-throughput screening tests each substance at several concentrations.

Data set [2] addresses T1, NEIL1. Put plainly: NEIL1 excision of FapyAde and FapyGua from γ-irradiated calf thymus DNA by GC-MS/MS. The data set is classed as biochemical. To be noted: 10 µL of 2 mM inhibitor in DMSO, 1 h 37°C. On the procedure: The enzymatic activity of NEIL1 was measured using gas chromatography/isotope-dilution tandem mass spectrometry (GC-MS/MS) and calf thymus DNA samples γ-irradiated at 20 Gy as described, [30]. Aliquots of FapyAde-^13C,^15N2 and FapyGua-^13C,^15N2 were added as internal standards to 50 µg of DNA samples. After drying in a SpeedVac, DNA samples were dissolved in 50 µL of an incubation buffer consisting of 50 mM phosphate buffer (pH 7.4), 100 mM KCl, 1 mM EDTA, and 0.1 mM dithiothreitol, and then incubated with 2 µg NEIL1 for 1 h at 37°C without any inhibitor, DMSO alone, or with 10 µL of an inhibitor solution in DMSO (2 mM). After incubation, 150 µL of cold ethanol was added. The samples were kept at −20°C for 1 h and then centrifuged with 14,000 g for 30 min at 4°C. The supernatant fractions were separated and ethanol removed in a SpeedVac under vacuum. The samples were then frozen in liquid nitrogen and lyophilized overnight. To fully remove DMSO that would interfere with GC-MS/MS analysis, 500 µL water were added to the samples followed by lyophilization overnight. This procedure was repeated twice. Dried samples were derivatized and analyzed by GC-MS/MS as described, [30]. For each data point, three independently prepared samples were used.
Although Gh and Sp are excellent substrates for NEIL1, these are likely not to be the biologically relevant substrates. Thus, to determine if the compounds that were identified above were effective in the inhibition of NEIL1 against its biologically relevant substrates FapyAde and FapyGua, [6], γ-irradiated calf thymus DNA was used as a substrate. The excision by NEIL1 of these substrates from DNA was measured by GC-MS/MS with isotope-dilution. Figure 8 illustrates the excision of FapyAde and FapyGua by NEIL1 from γ-irradiated calf thymus DNA in the absence or presence of inhibitors. […] Some inhibition by DMSO alone was also observed when compared with excision by NEIL1 alone (p = 0.01). However, when compared to DMSO, the inhibitions by P2, P6, P7 and P8 were highly significant (p<0.005). […] A p-value<0.05 was assumed to correspond to statistical significance.

The next data set relates to Neil1-KO MEFs. Put plainly: cell survival assay (CellTiter Glo), Neil1-KO MEFs. It counts as cell-based, mouse. The conditions noted are these: Neil1 knockout MEFs, 72 h exposure. How it is done: Wild-type or Neil1-KO MEFs were plated in a 96-well opaque walled dish (2000 cells/well) and incubated for 18 h to allow for attachment. Inhibitor (80 µL) diluted in DMEM was added to the cells at various concentrations ranging from 0–20 µM, and incubated for an additional 72 h. Cell viability was measured using the CellTiter Glo reagent (Promega, Madison, WI) and was prepared as per the manufacturer's instructions, with 50 µL of the reconstituted reagent added to each well. Cells were incubated for 10 min on an orbital shaker to induce cell lysis. Survival was measured by luminescence on a microplate reader (TECAN) and normalized to no-treatment control.
To experimentally address this question, mouse embryo fibroblasts from wild-type and Neil1 knockout mice were treated with increasing concentrations of P2, P6, P7, and P8. Cell survival was measured after a 72 h exposure. For all four compounds, the 37% survival was greater in the Neil1 knockout cells relative to the wild-type. The D37 ratios for WT: Neil1 were as follows: P2: 6∶10 µM; P6: 5∶8 µM; P7: 12∶15 µM; and P8: 7∶11 µM, respectively. […] In addition to modulating BER, there are potentially many other candidate enzymes that may be compromised by the introduction of these compounds, including but not limited to kinases, DNA and RNA polymerases, other DNA repair complexes or helicases. However, given that the concentrations of these compounds are several orders of magnitude higher than what would be considered as a pharmacologically-relevant dose, detailed mechanistic analyses of the current set of compounds is highly premature. Such studies and the development of appropriate cell culture and animal models will need to be generated concomitantly with the evolution of higher affinity, greater specificity molecules.
Background: In ATP-based viability assays light output follows the ATP content of the culture.

T1 sequence (Q96FI4 whole entry): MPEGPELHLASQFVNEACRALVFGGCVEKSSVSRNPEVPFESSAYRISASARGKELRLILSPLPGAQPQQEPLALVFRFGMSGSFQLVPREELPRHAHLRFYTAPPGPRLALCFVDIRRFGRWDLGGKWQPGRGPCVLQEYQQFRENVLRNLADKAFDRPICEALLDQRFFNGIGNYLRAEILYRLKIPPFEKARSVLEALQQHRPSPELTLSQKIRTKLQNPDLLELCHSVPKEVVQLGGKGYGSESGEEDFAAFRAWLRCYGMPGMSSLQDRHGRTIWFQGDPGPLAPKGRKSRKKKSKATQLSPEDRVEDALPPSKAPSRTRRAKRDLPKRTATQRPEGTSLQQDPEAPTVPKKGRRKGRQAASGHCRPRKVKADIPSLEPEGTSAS

In general, IC50 refers to the concentration that inhibits the measured activity by half. A higher IC50 goes with weaker potency. On to `Cc1cc(/C=C/C#N)cc(C)c1Nc1nc(Nc2ccc3scnc3c2)c2nc[nH]c2n1` [Purine P2], for which the IC50 against NEIL1 [1] amounted to 4 µM. Further, the “inhibition of NEIL1 excision of FapyAde and FapyGua” value (“inhibition” for short) against NEIL1 [2] is “significantly reduced the activity of NEIL1”. Moreover, in the data set with Neil1-KO MEFs, the “D37 (37% survival)” value is recorded as 10 µM.

As for `Cc1nc2ccc(Nc3nc(Nc4c(C)cc(/C=C/C#N)cc4C)nc4[nH]cnc34)cc2s1` [Purine P6], the IC50 against NEIL1 [1] was 7.9 µM. Besides, the “inhibition” value at NEIL1 [2] is on record as “significantly reduced the activity of NEIL1”. In addition, the “D37 (37% survival)” value with Neil1-KO MEFs came to 8 µM.

`Cc1cc(/C=C/C#N)cc(C)c1Nc1nc(Nc2ccc3c(c2)CCC3)c2nc[nH]c2n1` [Purine P7] yielded a half-maximal inhibitory concentration (IC50) against NEIL1 [1] of 8.9 µM. The “inhibition” value at NEIL1 [2] is “significantly reduced the activity of NEIL1”. The “D37 (37% survival)” value with Neil1-KO MEFs is listed as 15 µM.

On to `Cc1cc(/C=C/C#N)cc(C)c1Nc1nc(Nc2ccc3c(c2)OCO3)c2nc[nH]c2n1` [Purine P8], for which inhibition at NEIL1 [1] was half-maximal at 10 µM (IC50). The “inhibition” value on NEIL1 [2] was “significantly reduced the activity of NEIL1”. Also, in the data set on Neil1-KO MEFs, the “D37 (37% survival)” value is recorded as 11 µM.

The values are drawn from PMC3857224, “Inhibition of DNA Glycosylases via Small Molecule Purine Analogs” (PLoS ONE, 2013).
